Read-outs that look alike come from different tables or passages of the source. Ends that are not written are not given here.

Data set [1] relates to human keratinocytes (HaCaT). Nature of the data set: HaCaT cell viability, CCK-8 assay. The class given is cell-based. The procedure:
HaCaT (IM-H225) cells from Xiamen Immocell Biotechnology Co., Ltd were cultured in DMEM high glucose medium (4.5 g/L, Gibco, USA), supplemented with 10% fetal bovine serum (Gibco, USA), 100 U/mL of penicillin and 100 μg/mL of streptomycin in a 5% CO2 fully humidified environment at 37 °C.
Cell Counting Kit-8 (CCK-8; Biosharp, China) was used to assess the rate of cellular proliferation and quantify cell viability. In brief, HaCaT cells were seeded in 96-well plates with 100 μL of medium at a density of 1 × 10^4 cells per well. After incubation of cells overnight, peptides were added into the medium for another 24 h incubation. Then, 10 μL of CCK8 solution was applied to each well and incubated for 1 h at 37 °C. Finally, the absorbance values at 450 nm were determined using a microplate reader (SYNERGY-H1, BioTek, USA). Two columns of the plate were kept for negative control (medium only) and growth control (medium with HaCaT cell). All experiments were conducted in triplicate.

Data set [2] deals with rabbit red blood cells (rRBCs). In words: Hemolytic activity assay. Type of data set: cell-based. The procedure:
The hemolytic activity of peptides was assayed on rabbit red blood cells (rRBCs)[43]. Briefly, 2% rRBCs (150 μL) were incubated in the presence of various peptide concentrations (50 μL) at 37 °C for 2 h. After centrifugation, the supernatants were collected for measuring absorbance at 545 nm. PBS and 0.01% Triton X-100 were used as the negative (no hemolysis) and positive (100% hemolysis) control, respectively. Triplicate tests were performed.

The test system of the next data set is C. acnes (BNCC 336649). To be noted: for Concentration with antimicrobial activity >50%: C. acnes; for Concentration with antimicrobial activity >50% / Category of in vitro test antimicrobial activity against C. acnes: supplementary Table 5; for Antimicrobial activity > 50% against C. acnes: broth microdilution, 48 h, OD 630 nm. The procedure: The strain of C. acnes (BNCC 336649) was cultured in Wilkins-Chalgren Anaerobe Broth (QingDao RiShui Bio-technologies, 11071) at 37 °C under an anaerobic atmosphere performed by a Labiophy HL-B automatic hypoxic workstation (Dalian, Liaoning Province, Labiophy HL-B), inflated with a gas mix of 15% carbon dioxide, 83% nitrogen, and 2% hydrogen.
Logarithmic phase growth bacteria were used for antimicrobial testing.
To determine the MIC values, the broth microdilution method was used. […] Briefly, peptide samples were prepared as a stock solution in water and then diluted. 180 μL of the bacterial suspension (10^7 CFU/mL) and 20 μL of the tested sample were added together into 96-Well Deep Well Plates and incubated 24 h for E. coli and S. aureus or 48 h for C. acnes and C. albicans. For each test, two columns of the plate were kept for sterility control (broth only) and growth control (broth with bacterial inoculums, no antibiotics). The optical density of cultures was measured at 630 nm by a microplate reader (SYNERGY-H1, BioTek, USA) to estimate bacterial growth. All experiments were conducted in triplicate. We used ciprofloxacin (CPFX) as the antibiotic control for antimicrobial testing.
In general terms: Broth dilution looks for growth in wells or tubes with falling amounts of substance.

Take KILGKLLKWASKIW [AMP-31]: the “Cytotoxic Index” value in data set [1] amounted to 8. The “Hemolysis Index” value in data set [2] was found to be 20.
Consider GIFKKITGKLFKWIK [AMP-5], for which, in data set [1], the “Cytotoxic Index” value amounted to 10 and the “HaCaT cell tolerance up to” value was determined as 80 µg/mL. Further, in data set [2], the “Hemolysis Index” value turned out to be 30.
As for GWAKRLATRLAKAIL-NH2 [AMP-27], in data set [1], the “Cytotoxic Index” value came out at 12.8 and the “HaCaT cell tolerance up to” value was 320 µg/mL. Further, the “Hemolysis Index” value in data set [2] was found to be 6.4.
As to KKWRKVLKLIKRLVG-NH2 [AMP-12], the “Cytotoxic Index” value in data set [1] was 16. Moreover, in data set [2], the “Hemolysis Index” value stood at 40.
As for GVFDWLKKLGKKLAG [AMP-14], the “HaCaT cell tolerance up to” value in data set [1] worked out at 80 µg/mL. The “Concentration with antimicrobial activity >50%” value with C. acnes (BNCC 336649) turned out to be 12.5 µg/mL. Besides, the “Antimicrobial activity > 50% against C. acnes” value in the data set on C. acnes (BNCC 336649) (at 25 µg/mL), in the data set on C. acnes (BNCC 336649) (at 50 µg/mL) and in the data set on C. acnes (BNCC 336649) (at 100 µg/mL) was “Inhibit (A peptide was deemed to have antimicrobial activity if C. acnes growth was inhibited by more than 50% at a given concentration)” throughout. In addition, in the data set on C. acnes (BNCC 336649), the “Category of in vitro test antimicrobial activity against C. acnes” value (shortened to “Category”) is given as “Strong AMP”.
On to “FKRLKKLFKKIWNWK [HPA3NT3, reference compound]”, for which the “Cytotoxic Index” value in data set [1] (ratio of EC90 (HaCaT) to MIC of C. acnes) is on record as 8. Besides, in data set [2] (ratio of EC90 (rabbit red blood cells) to MIC of C. acnes), the “Hemolysis Index” value was determined as 32.
KKIFKRIVKIIKRLL [AMP-29]: the “Cytotoxic Index” value in data set [1] is 16. Also, the “Hemolysis Index” value in data set [2] came to 32.
As to FLGQLKNFFKKLAS [AMP-7], the “Antimicrobial activity > 50% against C. acnes” value with C. acnes (BNCC 336649) (at 25 µg/mL) was “No (A peptide was deemed to have antimicrobial activity if C. acnes growth was inhibited by more than 50% at a given concentration)”; with C. acnes (BNCC 336649) (at 50 µg/mL) it was “Inhibit (A peptide was deemed to have antimicrobial activity if C. acnes growth was inhibited by more than 50% at a given concentration)”; in the data set on C. acnes (BNCC 336649) (at 100 µg/mL) it was “Inhibit (A peptide was deemed to have antimicrobial activity if C. acnes growth was inhibited by more than 50% at a given concentration)”. The “Category” value in the data set with C. acnes (BNCC 336649) is “Medium AMP”.
Turning to HFLGVVAKLVSKLF [AMP-38], in data set [1], the “Cytotoxic Index” value was determined as 10 and the “HaCaT cell tolerance up to” value came out at 80 µg/mL. In data set [2], the “Hemolysis Index” value is reported as 16.
Taken in the same sequence, the figures for LSKWLKKLGKLLAG [AMP-33] were 20, 80 µg/mL and 20.
Consider KKLACRLWKWLAKKA [AMP-21], for which the “HaCaT cell tolerance up to” value in data set [1] was determined as 80 µg/mL. For the same substance, the “Concentration with antimicrobial activity >50%” value in the data set with C. acnes (BNCC 336649) is recorded as 12.5 µg/mL. Also, the “Antimicrobial activity > 50% against C. acnes” value in the data set on C. acnes (BNCC 336649) (at 25 µg/mL), in the data set with C. acnes (BNCC 336649) (at 50 µg/mL) and in the data set with C. acnes (BNCC 336649) (at 100 µg/mL) was “Inhibit (A peptide was deemed to have antimicrobial activity if C. acnes growth was inhibited by more than 50% at a given concentration)” throughout. Further, the “Category” value in the data set on C. acnes (BNCC 336649) is listed as “Strong AMP”.
KIAKRLAKKILNAI [AMP-10]: in the data set with C. acnes (BNCC 336649), the “Concentration with antimicrobial activity >50%” value worked out at 12.5 µg/mL. The “Antimicrobial activity > 50% against C. acnes” value in the data set on C. acnes (BNCC 336649) (at 25 µg/mL), in the data set on C. acnes (BNCC 336649) (at 50 µg/mL) and in the data set on C. acnes (BNCC 336649) (at 100 µg/mL) was “Inhibit (A peptide was deemed to have antimicrobial activity if C. acnes growth was inhibited by more than 50% at a given concentration)” in each case. In addition, in the data set with C. acnes (BNCC 336649), the “Category” value is reported as “Strong AMP”.
With AKRIVKLIKNFFRKL-NH2 [AMP-25], in data set [1], the “Cytotoxic Index” value is reported as 20 and the “HaCaT cell tolerance up to” value was 80 µg/mL. For the same substance, the “Hemolysis Index” value in data set [2] turned out to be 60.
In the case of KRIVHRLLKKLHSLF [AMP-9], in data set [1], the “Cytotoxic Index” value was determined as 20 and the “HaCaT cell tolerance up to” value amounted to 160 µg/mL. In data set [2], the “Hemolysis Index” value was determined as 30.
For KAIAALAKKIIKVAK [AMP-24], the “Concentration with antimicrobial activity >50%” value in the data set on C. acnes (BNCC 336649) is given as “no”. For the same substance, the “Antimicrobial activity > 50% against C. acnes” value with C. acnes (BNCC 336649) (at 25 µg/mL), in the data set on C. acnes (BNCC 336649) (at 50 µg/mL) and in the data set on C. acnes (BNCC 336649) (at 100 µg/mL) was “No (A peptide was deemed to have antimicrobial activity if C. acnes growth was inhibited by more than 50% at a given concentration)” throughout. Besides, the “Category” value in the data set with C. acnes (BNCC 336649) is “No AMP”.

These data come from article PMC10894229, “Novel antimicrobial peptides against Cutibacterium acnes designed by deep learning” (Scientific Reports, 2024).
